Results published in PMC9007350, “Aurintricarboxylic acid is a canonical disruptor of the TAZ-TEAD transcriptional complex” (PLoS ONE, 2022).

System: TC/TEAD transcriptional profile in TC-expressing NIH3T3 cells
Assay: Bulk RNA-Seq, differential gene expression and GSEA (TC ATA v. TC DMSO)
Assay type: cell-based, murine
Details: TC ATA v. TC DMSO
Procedure: NIH3T3 and HEK293 cells were obtained from the American Type Tissue Collection (ATCC, Manassas, VA) and cultured in DMEM containing 10% fetal bovine serum and penicillin/streptomycin. A TEAD dual luciferase reporter assay was performed as previously described. Cells were treated with vehicle control or ATA (10 μM) for 48 h before measuring the luciferase activity or processing the samples for RNA extraction. Each experiment was repeated at least 2-3 times. NIH3T3 cells were used. The extracted RNA (RNeasy Mini, Qiagen) from treated cells was either used for qPCR measurements or sent for bulk RNA-Seq. Sequencing runs were performed on an Illumina HiSeq 4000 sequencer (Genewiz). Subsequent bioinformatics analysis was performed in the Galaxy Project platform. Paired end reads were aligned to the murine genome ([…]2 [27]. Raw count files were generated with featureCounts using a corresponding GTF reference. Differential gene expression analysis was performed with DESeq2 [29]. Transcripts were considered to be differentially expressed if the false discovery rate < 0.05 and Log2FC > 2. When performing differential gene expression for GSEA analysis, the Limma package was used (<5 CPM filtering) with t-scores used for rank statistics. GSEA plots and statistics were generated with FGSEA with custom gene sets. Raw sequencing reads and processed files have been deposited in the GEO repository (data will be uploaded upon manuscript acceptance). The Universal Probe Library probes (Roche) and the associated primer sequences for the qPCR targets are listed below: […]

SMILES: O=C(O)C1=CC(=C(c2ccc(O)c(C(=O)O)c2)c2ccc(O)c(C(=O)O)c2)C=CC1=O [ATA, aurintricarboxylic acid]
- Log2 Fold Change (gene Hmga1b): -0.4737
- Log2 Fold Change (gene Htra1): -0.7041
- Log2 Fold Change (gene Id1): 1.021
- Log2 Fold Change (gene Id3): 0.8267
- Log2 Fold Change (gene Igfbp4): 0.6017
- Log2 Fold Change (gene Il1r1): 0.3663
- Log2 Fold Change (gene Il11ra1): 0.412
- Log2 Fold Change (gene Il17rd): 0.6209
- Log2 Fold Change (gene Ipo7): -0.2967
- Log2 Fold Change (gene Lrig1): -0.4157
- Log2 Fold Change (gene Ltbp2): -0.4917
- Log2 Fold Change (gene Ly6a): 1.151
- Log2 Fold Change (gene Mgst1): 1.029
- Log2 Fold Change (gene Mocs1): 0.3748
- Log2 Fold Change (gene Mrgprf): 0.6309
- Log2 Fold Change (gene Mybpc1): 0.8979
- Log2 Fold Change (gene Myl3): 1.696
- Log2 Fold Change (gene Myoz2): 1.5589
- Log2 Fold Change (gene Naaa): 0.4836
- Log2 Fold Change (gene Nefm): -1.532
- Log2 Fold Change (gene Nes): -0.5782
- Log2 Fold Change (gene Nipal1): -0.5524
- Log2 Fold Change (gene Nqo1): 0.5252
- Log2 Fold Change (gene Nrcam): -1.361
- Log2 Fold Change (gene Nrn1): 0.4579
- Log2 Fold Change (gene Nrxn2): 0.7098
- Log2 Fold Change (gene Odc1): -0.4352
- Log2 Fold Change (gene Optn): 0.5559
- Log2 Fold Change (gene Osmr): 0.5327
- Log2 Fold Change (gene Pcx): 0.5741
- Log2 Fold Change (gene Pdgfrb): 0.5085
- Log2 Fold Change (gene Pdgfrl): 0.4243
- Log2 Fold Change (gene Podnl1): -0.4267
- Log2 Fold Change (gene Prrx2): 0.8257
- Log2 Fold Change (gene Pvr): -0.3787
- Log2 Fold Change (gene Rcan2): 0.6454
- Log2 Fold Change (gene Rgs4): 0.757
- Log2 Fold Change (gene Rnf150): 0.5435
- Log2 Fold Change (gene Sema7a): -1.826
- Log2 Fold Change (gene Serpinb9): 0.5861
- Log2 Fold Change (gene Serpine2): 0.9636
- Log2 Fold Change (gene Setbp1): 0.5242
- Log2 Fold Change (gene Slc45a3): 0.6918
- Log2 Fold Change (gene Smoc2): 0.9475
- Log2 Fold Change (gene Ssbp2): 0.4963
- Log2 Fold Change (gene Stard10): 0.7192
- Log2 Fold Change (gene Sulf2): 0.5447
- Log2 Fold Change (gene Thbs3): 0.6372
- Log2 Fold Change (gene Tmem119): 0.9507
- Log2 Fold Change (gene Tnnt1): 1.595
- Log2 Fold Change (gene Tnxb): 0.5484
- Log2 Fold Change (gene Tpm2): 0.3178
- Log2 Fold Change (gene Trim30a): 1.18
- Log2 Fold Change (gene Trp53inp2): 0.6286
- Log2 Fold Change (gene Zfp503): 0.4797
